Results: the supplement of paper PMC10307832

What was measured:
Assay in all cases: relative viability (nuclei count vs DMSO), 5 days (fraction); higher = more cells survive
Omipalisib + Navitoclax = compound: COc1ncc(-c2ccc3nccc(-c4ccnnc4)c3c2)cc1NS(=O)(=O)c1ccc(F)cc1F [Omipalisib] + CC1(C)CCC(c2ccc(Cl)cc2)=C(CN2CCN(c3ccc(C(=O)NS(=O)(=O)c4ccc(N[C@H](CCN5CCOCC5)CSc5ccccc5)c(S(=O)(=O)C(F)(F)F)c4)cc3)CC2)C1 [Navitoclax] (partner 0.5 µM)
Method in brief: (§1)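 Relative viability equals treated-well nuclei counts divided by vehicle-well nuclei counts. Counts came from 4× images of lung cancer cell lines grown in 1536-well plates for 5 days after pin-tool dosing on the day after seeding. Dosing used one drug alone or a fixed anchor-drug dose plus five library-drug doses (not always all listed) in √10 steps, and values are medians of duplicate plates.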

Omipalisib + Pemetrexed = compound: COc1ncc(-c2ccc3nccc(-c4ccnnc4)c3c2)cc1NS(=O)(=O)c1ccc(F)cc1F [Omipalisib] + Nc1nc2[nH]cc(CCc3ccc(C(=O)N[C@@H](CCC(=O)O)C(=O)O)cc3)c2c(=O)[nH]1 [Pemetrexed] (partner 0.2 µM)
Method in brief: as §1

Omipalisib + Olaparib = compound: COc1ncc(-c2ccc3nccc(-c4ccnnc4)c3c2)cc1NS(=O)(=O)c1ccc(F)cc1F [Omipalisib] + O=C(c1cc(Cc2n[nH]c(=O)c3ccccc23)ccc1F)N1CCN(C(=O)C2CC2)CC1 [Olaparib] (partner 8 µM)
Method in brief: as §1

Omipalisib + OSI-027 = compound: COc1ncc(-c2ccc3nccc(-c4ccnnc4)c3c2)cc1NS(=O)(=O)c1ccc(F)cc1F [Omipalisib] + COc1cccc2cc(-c3nc([C@H]4CC[C@H](C(=O)O)CC4)n4ncnc(N)c34)[nH]c12 [OSI-027] (partner 0.5 µM)
Method in brief: as §1

Omipalisib + Luminespib = compound: COc1ncc(-c2ccc3nccc(-c4ccnnc4)c3c2)cc1NS(=O)(=O)c1ccc(F)cc1F [Omipalisib] + CCNC(=O)c1noc(-c2cc(C(C)C)c(O)cc2O)c1-c1ccc(CN2CCOCC2)cc1 [Luminespib] (partner 0.01 µM)
Method in brief: as §1

Omipalisib + Alpelisib = compound: COc1ncc(-c2ccc3nccc(-c4ccnnc4)c3c2)cc1NS(=O)(=O)c1ccc(F)cc1F [Omipalisib] + Cc1nc(NC(=O)N2CCC[C@H]2C(N)=O)sc1-c1ccnc(C(C)(C)C(F)(F)F)c1 [Alpelisib] (partner 2 µM)
Method in brief: as §1

| Cell Line | relative viability (Omipalisib + Navitoclax; first compound 0.0003 µM) | relative viability (Omipalisib + Navitoclax; first compound 0.003 µM) | relative viability (Omipalisib + Navitoclax; first compound 0.03 µM) | relative viability (Omipalisib + Pemetrexed; first compound 0.0003 µM) | relative viability (Omipalisib + Pemetrexed; first compound 0.003 µM) | relative viability (Omipalisib + Pemetrexed; first compound 0.03 µM) | relative viability (Omipalisib + Olaparib; first compound 0.0003 µM) | relative viability (Omipalisib + Olaparib; first compound 0.003 µM) | relative viability (Omipalisib + Olaparib; first compound 0.03 µM) | relative viability (Omipalisib + OSI-027; first compound 0.0003 µM) | relative viability (Omipalisib + OSI-027; first compound 0.003 µM) | relative viability (Omipalisib + OSI-027; first compound 0.03 µM) | relative viability (Omipalisib + Luminespib; first compound 0.0003 µM) | relative viability (Omipalisib + Luminespib; first compound 0.003 µM) | relative viability (Omipalisib + Luminespib; first compound 0.03 µM) | relative viability (Omipalisib + Alpelisib; first compound 0.0003 µM) | relative viability (Omipalisib + Alpelisib; first compound 0.003 µM) | relative viability (Omipalisib + Alpelisib; first compound 0.03 µM) |
| --- | --- | --- | --- | --- | --- | --- | --- | --- | --- | --- | --- | --- | --- | --- | --- | --- | --- | --- |
| LU99A | 0.5 | 0.512 | 0.293 | 0.186 | 0.192 | 0.191 | 0.271 | 0.27 | 0.214 | 0.315 | 0.213 | 0.239 | 0.201 | 0.206 | 0.24 | 0.492 | 0.439 | 0.277 |
| PC-3 [JPC-3] | 0.781 | 0.76 | 0.646 | 1.03 | 1.12 | 0.89 | 1.05 | 1.16 | 0.915 | 0.735 | 0.569 | 0.551 | 0.677 | 0.587 | 0.485 | 1 | 0.993 | 0.863 |
| NCI-H838 | 1.1 | 0.997 | 0.501 | 0.25 | 0.229 | 0.214 | 0.745 | 0.564 | 0.302 | 0.335 | 0.345 | 0.181 | 0.332 | 0.269 | 0.203 | 0.935 | 0.802 | 0.357 |
| HCC-827 | 0.979 | 0.97 | 0.651 | 0.242 | 0.282 | 0.191 | 0.593 | 0.6 | 0.243 | 0.769 | 0.531 | 0.254 | 0.588 | 0.302 | 0.194 | 1.06 | 0.943 | 0.389 |
| NCI-H2087 | 0.918 | 0.749 | 0.535 | 0.646 | 0.558 | 0.597 | 0.602 | 0.344 | 0.291 | 0.532 | 0.309 | 0.251 | 0.166 | 0.14 | 0.158 | 1.19 | 0.886 | 0.751 |
| EMC-BAC-2 | 1.12 | 0.92 | 0.566 | 0.481 | 0.463 | 0.418 | 0.391 | 0.407 | 0.252 | 0.347 | 0.266 | 0.239 | 1.07 | 0.711 | 0.58 | 0.759 | 0.663 | 0.505 |
| 201T | 1.21 | 1.2 | 0.838 | 0.342 | 0.309 | 0.266 | 0.803 | 0.859 | 0.526 | 0.786 | 0.494 | 0.398 | 0.95 | 1.05 | 0.463 | 1.02 | 0.999 | 0.735 |
| RERF-LC-KJ | 0.79 | 0.7 | 0.627 | 0.47 | 0.439 | 0.414 | 0.883 | 0.763 | 0.562 | 0.524 | 0.423 | 0.367 | 1.15 | 1.13 | 0.688 | 0.865 | 0.583 | 0.627 |
